In ChEMBL document CHEMBL1201862, “PubChem BioAssay data set” (2004):
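Test compounds were applied to cells in 96-well plates for 48 hours at 5 doses. At the GI50, growth is halved.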 Activity calls are given as the source filed them. Cut-off read from the data, not from the text of the source: active = GI50 up to about 1.1 µM and inactive = higher.

Tests used:
Experiment in all cases: NCI-60 cell line screen, 48 h
LOX IMVI = tested on: LOX IMVI
CCRF-CEM = tested on: CCRF-CEM
SK-MEL-28 = tested on: SK-MEL-28
UACC-62 = tested on: UACC-62
IGROV-1 = tested on: IGROV-1
HL-60 = tested on: HL-60
MDA-MB-231 = tested on: MDA-MB-231
PC-3 = tested on: PC-3
SW-620 = tested on: SW-620
SF-539 = tested on: SF-539
SR = tested on: SR
HCT-15 = tested on: HCT-15
EKVX = tested on: EKVX
MCF7 = tested on: MCF7
T47D = tested on: T47D
NCI-H226 = tested on: NCI-H226
UO-31 = tested on: UO-31
HOP-62 = tested on: HOP-62
HT-29 = tested on: HT-29
KM12 = tested on: KM12
A498 = tested on: A498
ACHN = tested on: ACHN
OVCAR-8 = tested on: OVCAR-8
CAKI-1 = tested on: CAKI-1
TK-10 = tested on: TK-10
SNB-19 = tested on: SNB-19
RPMI-8226 = tested on: RPMI-8226
SK-MEL-2 = tested on: SK-MEL-2
SK-MEL-5 = tested on: SK-MEL-5
COLO 205 = tested on: COLO 205
MOLT-4 = tested on: MOLT-4
786-0 = tested on: 786-0
BT-549 = tested on: BT-549
MDA-N = tested on: MDA-N
SF-295 = tested on: SF-295
OVCAR-4 = tested on: OVCAR-4
RXF 393 = tested on: RXF 393
K562 = tested on: K562
SF-268 = tested on: SF-268
HOP-92 = tested on: HOP-92
Malme-3M = tested on: Malme-3M
NCI-H23 = tested on: NCI-H23
M14 = tested on: M14
NCI-H460 = tested on: NCI-H460
MDA-MB-435 = tested on: MDA-MB-435
SNB-75 = tested on: SNB-75
U-251 = tested on: U-251
Hs-578T = tested on: Hs-578T
UACC-257 = tested on: UACC-257
NCI/ADR-RES = tested on: NCI/ADR-RES
DU-145 = tested on: DU-145
OVCAR-3 = tested on: OVCAR-3
SK-OV-3 = tested on: SK-OV-3
A549 = tested on: A549
NCI-H522 = tested on: NCI-H522
HCT-116 = tested on: HCT-116
OVCAR-5 = tested on: OVCAR-5
SN12C = tested on: SN12C
HCC 2998 = tested on: HCC 2998

For O=S(=O)(O)c1ccc2cc(/N=N\c3cc(S(=O)(=O)O)c4cccnc4c3O)ccc2c1, the GI50 (LOX IMVI) was > 100 µM (inactive), the GI50 (CCRF-CEM) was 29.7 µM (inactive) and the GI50 (SK-MEL-28) was > 100 µM (inactive). For the same compound, the GI50 (UACC-62) was > 100 µM (inactive), the GI50 (IGROV-1) was > 100 µM (inactive) and the GI50 (HL-60) was 1.61 µM (inactive). The GI50 (MDA-MB-231) was > 100 µM (inactive), the GI50 (PC-3) was > 100 µM (inactive) and the GI50 (SW-620) was > 100 µM (inactive). The GI50 (SF-539) was > 100 µM (inactive), the GI50 (SR) was > 100 µM (inactive) and the GI50 (HCT-15) was over 100 µM. The GI50 (EKVX) was > 100 µM (inactive), the GI50 (MCF7) was > 100 µM (inactive) and the GI50 (T47D) was > 100 µM (inactive). For the same compound, the GI50 (NCI-H226) was > 100 µM (inactive), the GI50 (UO-31) was > 100 µM (inactive) and the GI50 (HOP-62) was > 100 µM (inactive). For the same compound, the GI50 (HT-29) was > 100 µM (inactive), the GI50 (KM12) was > 100 µM (inactive) and the GI50 (A498) was > 100 µM (inactive). For the same compound, the GI50 (ACHN) was > 100 µM (inactive), the GI50 (OVCAR-8) was > 100 µM (inactive) and the GI50 (CAKI-1) was > 100 µM (inactive). The GI50 (TK-10) was > 100 µM (inactive), the GI50 (SNB-19) was > 100 µM (inactive) and the GI50 (RPMI-8226) was > 100 µM (inactive). The GI50 (SK-MEL-2) was > 100 µM (inactive), the GI50 (SK-MEL-5) was > 100 µM (inactive) and the GI50 (COLO 205) was > 100 µM (inactive). For the same compound, the GI50 (MOLT-4) was > 100 µM (inactive), the GI50 (786-0) was > 100 µM (inactive) and the GI50 (BT-549) was > 100 µM (inactive). For the same compound, the GI50 (MDA-N) was > 100 µM (inactive), the GI50 (SF-295) was > 100 µM (inactive) and the GI50 (OVCAR-4) was > 100 µM (inactive). For the same compound, the GI50 (RXF 393) was > 100 µM (inactive), the GI50 (K562) was > 100 µM (inactive) and the GI50 (SF-268) was > 100 µM (inactive). The GI50 (HOP-92) was > 100 µM (inactive), the GI50 (Malme-3M) was > 100 µM (inactive) and the GI50 (NCI-H23) was > 100 µM (inactive). The GI50 (M14) was > 100 µM (inactive), the GI50 (NCI-H460) was > 100 µM (inactive) and the GI50 (MDA-MB-435) was > 100 µM (inactive). For the same compound, the GI50 (SNB-75) was > 100 µM (inactive), the GI50 (U-251) was > 100 µM (inactive) and the GI50 (Hs-578T) was > 100 µM (inactive). For the same compound, the GI50 (UACC-257) was > 100 µM (inactive), the GI50 (NCI/ADR-RES) was > 100 µM (inactive) and the GI50 (DU-145) was > 100 µM (inactive). The GI50 (OVCAR-3) was > 100 µM (inactive), the GI50 (SK-OV-3) was > 100 µM (inactive) and the GI50 (A549) was > 100 µM (inactive). For the same compound, the GI50 (NCI-H522) was > 100 µM (inactive), the GI50 (HCT-116) was > 100 µM (inactive) and the GI50 (OVCAR-5) was > 100 µM (inactive).
O=C1c2ccccc2-n2nnnc2C2CSCN12 (configuration not stated) was tested, and the GI50 (LOX IMVI) was > 100 µM (inactive), the GI50 (CCRF-CEM) was > 100 µM (inactive) and the GI50 (SK-MEL-28) was > 100 µM (inactive). For the same compound, the GI50 (UACC-62) was > 100 µM (inactive), the GI50 (IGROV-1) was > 100 µM (inactive) and the GI50 (MDA-MB-231) was > 100 µM (inactive). For the same compound, the GI50 (PC-3) was > 100 µM (inactive), the GI50 (SW-620) was > 100 µM (inactive) and the GI50 (SN12C) was > 100 µM (inactive). For the same compound, the GI50 (SR) was > 100 µM (inactive), the GI50 (HCT-15) was over 100 µM and the GI50 (EKVX) was > 100 µM (inactive). For the same compound, the GI50 (MCF7) was > 100 µM (inactive), the GI50 (T47D) was > 100 µM (inactive) and the GI50 (NCI-H226) was > 100 µM (inactive). The GI50 (UO-31) was > 100 µM (inactive), the GI50 (HOP-62) was > 100 µM (inactive) and the GI50 (HT-29) was > 100 µM (inactive). For the same compound, the GI50 (KM12) was > 100 µM (inactive), the GI50 (A498) was > 100 µM (inactive) and the GI50 (ACHN) was > 100 µM (inactive). For the same compound, the GI50 (OVCAR-8) was > 100 µM (inactive), the GI50 (CAKI-1) was > 100 µM (inactive) and the GI50 (HCC 2998) was > 100 µM (inactive). For the same compound, the GI50 (TK-10) was > 100 µM (inactive), the GI50 (SNB-19) was > 100 µM (inactive) and the GI50 (RPMI-8226) was > 100 µM (inactive). For the same compound, the GI50 (SK-MEL-2) was > 100 µM (inactive), the GI50 (SK-MEL-5) was > 100 µM (inactive) and the GI50 (COLO 205) was > 100 µM (inactive). The GI50 (MOLT-4) was > 100 µM (inactive), the GI50 (786-0) was > 100 µM (inactive) and the GI50 (BT-549) was > 100 µM (inactive). The GI50 (MDA-N) was > 100 µM (inactive), the GI50 (SF-295) was > 100 µM (inactive) and the GI50 (OVCAR-4) was > 100 µM (inactive). For the same compound, the GI50 (RXF 393) was > 100 µM (inactive), the GI50 (K562) was 56.2 µM (inactive) and the GI50 (SF-268) was > 100 µM (inactive). The GI50 (Malme-3M) was > 100 µM (inactive), the GI50 (M14) was > 100 µM (inactive) and the GI50 (NCI-H460) was > 100 µM (inactive). The GI50 (MDA-MB-435) was > 100 µM (inactive), the GI50 (SNB-75) was > 100 µM (inactive) and the GI50 (U-251) was > 100 µM (inactive). The GI50 (Hs-578T) was > 100 µM (inactive), the GI50 (UACC-257) was > 100 µM (inactive) and the GI50 (NCI/ADR-RES) was > 100 µM (inactive). The GI50 (DU-145) was > 100 µM (inactive), the GI50 (OVCAR-3) was > 100 µM (inactive) and the GI50 (SK-OV-3) was > 100 µM (inactive). For the same compound, the GI50 (A549) was > 100 µM (inactive), the GI50 (NCI-H522) was > 100 µM (inactive) and the GI50 (HCT-116) was > 100 µM (inactive). For the same compound, the GI50 (OVCAR-5) was > 100 µM (inactive).
